Measured values reported in PubChem BioAssay (NCI).
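Grown in 96-well plates, cells were treated for 48 hours with each compound at five concentrations. Insufficient inhibition: endpoint recorded as highest concentration tested. At the TGI there is no net growth.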

Tests used:
Assay in all cases: NCI-60 cell line screen, 48 h
[1] = tested on: NCI-H522 lung
[2] = tested on: ACHN renal
[3] = tested on: OVCAR-8 ovarian
[4] = tested on: HT29 colon
[5] = tested on: UO-31 renal
[6] = tested on: SK-MEL-2 melanoma
[7] = tested on: CAKI-1 renal
[8] = tested on: SF-539 CNS
[9] = tested on: EKVX NSCLC
[10] = tested on: MDA-N
[11] = tested on: UACC-62 melanoma
[12] = tested on: NCI-H226 lung
[13] = tested on: T-47D breast
[14] = tested on: NCI-H460 lung
[15] = tested on: A549 NSCLC
[16] = tested on: U251 CNS
[17] = tested on: SR leukemia
[18] = tested on: SW-620 colon
[19] = tested on: SNB-19 CNS
[20] = tested on: HCT-15 colon
[21] = tested on: MOLT-4 leukemia
[22] = tested on: SK-MEL-5 melanoma
[23] = tested on: KM12 colon
[24] = tested on: HCT-116 colon
[25] = tested on: NCI/ADR-RES ovarian
[26] = tested on: SF-268 CNS
[27] = tested on: SK-OV-3 ovarian
[28] = tested on: DU-145 prostate
[29] = tested on: A498 renal
[30] = tested on: PC-3 prostate
[31] = tested on: MALME-3M melanoma
[32] = tested on: RXF 393 renal
[33] = tested on: RPMI-8226 leukemia
[34] = tested on: MDA-MB-435
[35] = tested on: CCRF-CEM leukemia
[36] = tested on: COLO 205 colon
[37] = tested on: K-562 leukemia
[38] = tested on: HOP-92 NSCLC
[39] = tested on: 786-0 renal
[40] = tested on: HOP-62 NSCLC
[41] = tested on: NCI-H23 lung
[42] = tested on: SNB-75 CNS
[43] = tested on: SN12C renal
[44] = tested on: BT-549 breast
[45] = tested on: HL-60(TB) leukemia
[46] = tested on: OVCAR-5 ovarian
[47] = tested on: M14 melanoma
[48] = tested on: LOX IMVI melanoma
[49] = tested on: MCF7 breast
[50] = tested on: UACC-257 melanoma
[51] = tested on: SF-295 CNS
[52] = tested on: HS 578T breast
[53] = tested on: TK-10 renal
[54] = tested on: OVCAR-3 ovarian
[55] = tested on: OVCAR-4 ovarian
[56] = tested on: IGROV1 ovarian
[57] = tested on: HCC-2998 colon
[58] = tested on: MDA-MB-231 breast
[59] = tested on: SK-MEL-28 melanoma

O=C(NNS(=O)(=O)c1ccc(Br)cc1)c1ccc(Cl)cc1NC(=O)C12CC3CC(CC(C3)C1)C2
TGI [1]: 25.1 µM | TGI [2]: 29.7 µM | TGI [3]: 31.9 µM | TGI [4]: 27.2 µM | TGI [5]: 24.2 µM | TGI [6]: 25.3 µM | TGI [7]: 56.6 µM | TGI [8]: 32.3 µM | TGI [9]: 27.3 µM | TGI [10]: 32.2 µM | TGI [11]: 25.6 µM | TGI [12]: 35.6 µM | TGI [13]: > 100 µM | TGI [14]: 23.4 µM | TGI [15]: 21.4 µM | TGI [16]: 22.7 µM | TGI [17]: 35.5 µM | TGI [18]: 41.4 µM | TGI [19]: 28.7 µM | TGI [20]: 45.4 µM | TGI [21]: 73.9 µM | TGI [22]: 23.2 µM | TGI [23]: 85.7 µM | TGI [24]: > 100 µM | TGI [25]: 32.5 µM | TGI [26]: 24.9 µM | TGI [27]: 30.3 µM | TGI [28]: 33.4 µM | TGI [29]: 29 µM | TGI [30]: 38.6 µM | TGI [31]: 35.3 µM | TGI [32]: 31.6 µM | TGI [33]: 24 µM | TGI [34]: 25.8 µM | TGI [35]: 76.5 µM | TGI [36]: 24.5 µM | TGI [37]: 24.4 µM | TGI [38]: 27.3 µM | TGI [39]: 40 µM | TGI [40]: 47.8 µM | TGI [41]: 28.2 µM | TGI [42]: 28 µM | TGI [43]: 36.1 µM | TGI [44]: 34.8 µM | TGI [45]: 67.9 µM | TGI [46]: 34.3 µM | TGI [47]: 33.6 µM | TGI [48]: 28.4 µM | TGI [49]: 34.1 µM | TGI [50]: 26.9 µM | TGI [51]: 29.3 µM | TGI [52]: 40.7 µM | TGI [53]: 33.2 µM | TGI [54]: 26.5 µM | TGI [55]: 23.8 µM | TGI [56]: 24.7 µM

CCCCOc1c(C(=O)O)cc(Br)cc1C(=O)O
TGI [1]: > 100 µM | TGI [2]: > 100 µM | TGI [3]: > 100 µM | TGI [5]: > 100 µM | TGI [6]: > 100 µM | TGI [7]: > 100 µM | TGI [8]: > 100 µM | TGI [57]: > 100 µM | TGI [9]: > 100 µM | TGI [10]: > 100 µM | TGI [12]: > 100 µM | TGI [13]: > 100 µM | TGI [14]: > 100 µM | TGI [15]: > 100 µM | TGI [16]: > 100 µM | TGI [18]: > 100 µM | TGI [19]: > 100 µM | TGI [20]: > 100 µM | TGI [21]: > 100 µM | TGI [22]: > 100 µM | TGI [23]: > 100 µM | TGI [24]: > 100 µM | TGI [25]: > 100 µM | TGI [26]: > 100 µM | TGI [58]: > 100 µM | TGI [27]: > 100 µM | TGI [29]: > 100 µM | TGI [30]: > 100 µM | TGI [31]: > 100 µM | TGI [32]: > 100 µM | TGI [33]: > 100 µM | TGI [34]: > 100 µM | TGI [36]: > 100 µM | TGI [59]: > 100 µM | TGI [37]: > 100 µM | TGI [38]: > 100 µM | TGI [39]: > 100 µM | TGI [40]: > 100 µM | TGI [41]: > 100 µM | TGI [42]: > 100 µM | TGI [43]: > 100 µM | TGI [44]: > 100 µM | TGI [46]: > 100 µM | TGI [47]: > 100 µM | TGI [48]: > 100 µM | TGI [49]: > 100 µM | TGI [50]: > 100 µM | TGI [51]: > 100 µM | TGI [53]: > 100 µM | TGI [54]: > 100 µM | TGI [55]: > 100 µM | TGI [56]: > 100 µM
